# Results taken from ChEMBL document CHEMBL1152058, “Configurational variants of hydroxyphenylkainoid: their potent depolarizing activities in the rat central nervous system” (1992).
# Species on record: Rattus norvegicus
# Assay: Compound was evaluated for its depolarizing activity in the isolated rat spinal cord and the relative potency was determined
# Format: functional
row,SMILES,Relative potency
1,O=C(O)C[C@H]1[C@@H](C(=O)O)NC[C@H]1c1ccccc1O,0.5
2,O=C(O)C[C@H]1[C@@H](C(=O)O)NC[C@@H]1c1ccccc1O,2
3,O=C(O)C[C@@H]1[C@@H](C(=O)O)NC[C@@H]1c1ccccc1O,300
4,O=C(O)C[C@@H]1[C@@H](C(=O)O)NC[C@H]1c1ccccc1O,0.5
5,N[C@@H](CCC(=O)O)C(=O)O [GLUTAMIC ACID],1
6,C=C(C)[C@H]1CN[C@H](C(=O)O)[C@H]1CC(=O)O [KAINIC ACID],150
